Experiments:
[1] = target: T1, intracellular phosphorylation of EGFR in NCI-H1975 cell line that harbors the EGFR L858R T790M mutations (Homo sapiens, UniProt P00533, L858R/T790M); assay: NCI-H1975 pEGFR AlphaLISA assay; format: cell-based; conditions: NCI-H1975 cells (EGFR L858R T790M), p-EGFR (Tyr1068), 4-5 hours incubation; read-out: Ext pEGFR H1975 GMean IC50 (nM) Protocol: @Pharmaron AlphaLISA (Num)
T1 construct: NCI-H1975 cell line that harbors the EGFR L858R T790M mutations (ATCC, CRL-5908); host or cells: NCI-H1975
T1 sequence (P00533 25-1210 T790M/L858R): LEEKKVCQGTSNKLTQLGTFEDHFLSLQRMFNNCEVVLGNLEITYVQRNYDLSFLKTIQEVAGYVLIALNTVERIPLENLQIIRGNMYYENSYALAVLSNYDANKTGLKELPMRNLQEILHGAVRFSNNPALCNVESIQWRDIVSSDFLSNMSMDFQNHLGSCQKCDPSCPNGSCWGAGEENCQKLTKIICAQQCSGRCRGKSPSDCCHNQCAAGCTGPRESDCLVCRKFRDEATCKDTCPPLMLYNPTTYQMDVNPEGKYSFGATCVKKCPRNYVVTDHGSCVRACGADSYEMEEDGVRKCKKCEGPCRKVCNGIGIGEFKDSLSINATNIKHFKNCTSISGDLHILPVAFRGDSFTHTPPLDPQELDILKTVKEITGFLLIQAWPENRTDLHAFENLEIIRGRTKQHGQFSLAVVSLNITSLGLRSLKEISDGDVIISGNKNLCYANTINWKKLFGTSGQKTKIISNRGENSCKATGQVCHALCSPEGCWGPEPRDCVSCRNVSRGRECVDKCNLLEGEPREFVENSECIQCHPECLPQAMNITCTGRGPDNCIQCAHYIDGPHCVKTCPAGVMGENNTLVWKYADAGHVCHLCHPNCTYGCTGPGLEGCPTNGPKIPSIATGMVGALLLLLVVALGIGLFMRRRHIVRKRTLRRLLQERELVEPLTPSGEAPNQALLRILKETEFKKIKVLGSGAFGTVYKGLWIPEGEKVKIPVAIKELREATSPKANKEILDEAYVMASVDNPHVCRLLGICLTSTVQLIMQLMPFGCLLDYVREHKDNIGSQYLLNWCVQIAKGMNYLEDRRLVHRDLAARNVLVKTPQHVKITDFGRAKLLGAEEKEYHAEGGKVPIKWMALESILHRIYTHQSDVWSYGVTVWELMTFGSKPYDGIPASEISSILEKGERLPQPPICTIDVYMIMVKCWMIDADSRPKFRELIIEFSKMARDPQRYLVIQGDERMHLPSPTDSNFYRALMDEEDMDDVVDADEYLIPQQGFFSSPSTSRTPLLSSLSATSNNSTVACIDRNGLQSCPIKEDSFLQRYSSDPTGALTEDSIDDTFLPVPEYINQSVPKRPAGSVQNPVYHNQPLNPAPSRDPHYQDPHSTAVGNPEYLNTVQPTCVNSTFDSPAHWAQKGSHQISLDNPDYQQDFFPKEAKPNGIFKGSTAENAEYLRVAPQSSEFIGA
Procedure: On the next day, the test compounds and DMSO control were added into H1975 cell plate followed by incubation at 37C/5% CO2 for 4-5 hours. […] Then 5 μL of a donor bead mix was added to each well followed by overnight incubation at room temperature in dark. On the next day, the plate was read at a compatible plate reader to obtain pEGFR signal. Percent of pEGFR inhibition was plotted against log concentration of compounds to generate IC50 values.

EGFR (L858R T790M C797S) = target: T2, EGFR (L858R T790M C797S) (Homo sapiens, UniProt P00533, C797S/L858R/T790M); assay: Biochemical EGFR inhibition assay (Caliper mobility shift), EGFR LRTMCS; conditions: LRTMCS (PH) IC50 (nM) @ 1 mM ATP (Num), EGFR LRTMCS mutant
T2 construct: purchased SignalChem E10-122VG
T2 sequence (P00533 25-1210 T790M/C797S/L858R): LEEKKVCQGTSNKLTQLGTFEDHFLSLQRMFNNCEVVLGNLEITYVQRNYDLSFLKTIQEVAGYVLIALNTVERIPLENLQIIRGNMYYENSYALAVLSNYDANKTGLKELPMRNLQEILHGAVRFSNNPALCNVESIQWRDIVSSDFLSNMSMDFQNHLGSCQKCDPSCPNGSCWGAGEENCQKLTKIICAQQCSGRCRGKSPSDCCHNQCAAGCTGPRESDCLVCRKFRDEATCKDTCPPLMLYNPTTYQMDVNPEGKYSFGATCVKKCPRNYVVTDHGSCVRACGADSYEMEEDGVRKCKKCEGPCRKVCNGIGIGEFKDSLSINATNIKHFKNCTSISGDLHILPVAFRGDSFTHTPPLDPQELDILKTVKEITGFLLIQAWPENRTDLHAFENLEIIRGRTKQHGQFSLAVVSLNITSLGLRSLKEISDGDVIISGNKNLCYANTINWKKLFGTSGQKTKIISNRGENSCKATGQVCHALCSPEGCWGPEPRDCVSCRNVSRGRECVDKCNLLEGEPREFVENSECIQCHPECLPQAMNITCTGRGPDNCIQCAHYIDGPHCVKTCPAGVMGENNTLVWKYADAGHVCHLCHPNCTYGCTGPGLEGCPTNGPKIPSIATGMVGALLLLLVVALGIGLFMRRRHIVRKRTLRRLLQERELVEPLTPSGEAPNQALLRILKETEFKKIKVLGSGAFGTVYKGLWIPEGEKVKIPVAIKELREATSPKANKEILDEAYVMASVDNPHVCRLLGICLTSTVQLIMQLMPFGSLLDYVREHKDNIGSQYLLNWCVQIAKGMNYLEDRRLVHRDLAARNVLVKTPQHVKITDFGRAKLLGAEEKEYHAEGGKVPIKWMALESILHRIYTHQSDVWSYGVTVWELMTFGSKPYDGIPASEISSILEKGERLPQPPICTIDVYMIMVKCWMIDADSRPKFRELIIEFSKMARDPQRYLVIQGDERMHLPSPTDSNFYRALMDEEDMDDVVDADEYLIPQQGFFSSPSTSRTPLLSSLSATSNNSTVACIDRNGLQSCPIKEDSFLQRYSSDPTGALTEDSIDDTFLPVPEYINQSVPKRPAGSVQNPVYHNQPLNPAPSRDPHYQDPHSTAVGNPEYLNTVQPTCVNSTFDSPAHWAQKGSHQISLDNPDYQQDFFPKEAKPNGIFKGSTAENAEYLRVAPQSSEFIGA
Method in brief: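 Each enzyme was allowed to phosphorylate 10–20% of its peptide at 25° C. before EDTA (35 mM) quench. Separated substrate and product peaks were measured by mobility shift, giving apparent IC50 values.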

Structure (SMILES) | IC50 [1] [nM] | IC50 (EGFR (L858R T790M C797S)) [nM]
CC(C)c1ccc(N2CC(c3nnco3)C2)c2cnc(Nc3ccnc(N4CC[C@@H](O)[C@@](C)(F)C4)n3)cc12 [Example 111, (3S,4R)-1-(4-((8-(3-(1,3,4-oxadiazol-2-yl)azetidin-1-yl)-5-isopropylisoquinolin-3-yl)amino)pyrimidin-2-yl)-3-fluoro-3-methylpiperidin-4-ol] | < 10 | < 15
CC(C)c1ccc(N2CC(c3nncn3C)C2)c2cnc(Nc3ccnc(N4CC[C@@H](O)[C@@](C)(F)C4)n3)cc12 [Example 112, (3S,4R)-3-fluoro-1-(4-((5-isopropyl-8-(3-(4-methyl-4H-1,2,4-triazol-3-yl)azetidin-1-yl)isoquinolin-3-yl)amino)pyrimidin-2-yl)-3-methylpiperidin-4-ol] | 10 to 20 | < 15
CC(C)c1ccc(N2CC(C)(c3nnco3)C2)c2cnc(Nc3ccnc(N4CC[C@@H](O)[C@@](C)(F)C4)n3)cc12 [Example 113, (3S,4R)-3-fluoro-1-(4-((5-isopropyl-8-(3-methyl-3-(1,3,4-oxadiazol-2-yl)azetidin-1-yl)isoquinolin-3-yl)amino)pyrimidin-2-yl)-3-methylpiperidin-4-ol] | 10 to 20 | 20 to 30
CC(C)c1nnc(N2CCCC2)c2cnc(Nc3ccnc(N4CC[C@@H](O)[C@@](C)(F)C4)n3)cc12 [Example 114, (3S,4R)-3-fluoro-1-(4-((1-isopropyl-4-(pyrrolidin-1-yl)pyrido[3,4-d]pyridazin-7-yl)amino)pyrimidin-2-yl)-3-methylpiperidin-4-ol] | > 50 | 30 to 100
CC(C)c1cnc(N2CCC[C@H]2CN(C)C)c2cnc(Nc3ccnc(N4CC[C@@H](O)[C@@](C)(F)C4)n3)cc12 [Example 115, (3S,4R)-1-(4-((8-((S)-2-((dimethylamino)methyl)pyrrolidin-1-yl)-5-isopropyl-2,7-naphthyridin-3-yl)amino)pyrimidin-2-yl)-3-fluoro-3-methylpiperidin-4-ol] | 30 to 50 | 30 to 100
CC(C)c1cnc(N2CCC23CN(C)C3)c2cnc(Nc3ccnc(N4CCC5(CCO5)CC4)n3)cc12 [Example 116, N-(2-(1-oxa-7-azaspiro[3.5]nonan-7-yl)pyrimidin-4-yl)-5-isopropyl-8-(6-methyl-1,6-diazaspiro[3.3]heptan-1-yl)-2,7-naphthyridin-3-amine] | > 50 | 20 to 30
CC(C)c1cnc(N2CC(O)C2)c2cnc(Nc3ccnc(N4CCC5(CCO5)CC4)n3)cc12 [Example 117, 1-(6-((2-(1-oxa-7-azaspiro[3.5]nonan-7-yl)pyrimidin-4-yl)amino)-4-isopropyl-2,7-naphthyridin-1-yl)azetidin-3-ol] | > 50 | 15 to 20
CC(C)c1cnc(N2C[C@H](O)[C@H]2C)c2cnc(Nc3ccnc(N4CCC(C)(O)CC4)n3)cc12 [Example 128, 1-(4-((8-((2R,3S)-3-hydroxy-2-methylazetidin-1-yl)-5-isopropyl-2,7-naphthyridin-3-yl)amino)pyrimidin-2-yl)-4-methylpiperidin-4-ol] | > 50 | < 15
CC(C)c1ccc(N2C[C@H](n3ccnn3)[C@H]2C)c2cnc(Nc3ccnc(N4CCC(C)(O)CC4)n3)cc12 [Example 129, 1-(4-((5-isopropyl-8-((2R,3S)-2-methyl-3-(1H-1,2,3-triazol-1-yl)azetidin-1-yl)isoquinolin-3-yl)amino)pyrimidin-2-yl)-4-methylpiperidin-4-ol] | 20 to 30 | 30 to 100
CC(C)c1cnc(N2C[C@H](n3ccnn3)[C@H]2C)c2cnc(Nc3ccnc(N4CCC(C)(O)CC4)n3)cc12 [Example 130, 1-(4-((5-isopropyl-8-((2R,3S)-2-methyl-3-(1H-1,2,3-triazol-1-yl)azetidin-1-yl)-2,7-naphthyridin-3-yl)amino)pyrimidin-2-yl)-4-methylpiperidin-4-ol] | 20 to 30 | 15 to 20
CC(C)c1cnc(N2CC[C@H]2C)c2cnc(Nc3ccnc(N4CCC(O)(CO)CC4)n3)cc12 [Example 131, (R)-4-(hydroxymethyl)-1-(4-((5-isopropyl-8-(2-methylazetidin-1-yl)-2,7-naphthyridin-3-yl)amino)pyrimidin-2-yl)piperidin-4-ol] | > 50 | 15 to 20
[2H]C([2H])([2H])O[C@H]1CCN(c2nccc(Nc3cc4c(C(C)C)cnc(N5C[C@H](OCCO)[C@H]5C)c4cn3)n2)C[C@H]1F [Example 137, 2-(((2R,3S)-1-(6-((2-((3R,4S)-3-fluoro-4-(methoxy-d3)piperidin-1-yl)pyrimidin-4-yl)amino)-4-isopropyl-2,7-naphthyridin-1-yl)-2-methylazetidin-3-yl)oxy)ethan-1-ol] | < 10 | < 15
[2H]C([2H])([2H])O[C@H]1CCN(c2nccc(Nc3cc4c(C(C)C)cnc(N5C[C@H](O)[C@H]5C)c4cn3)n2)C[C@H]1F [Example 138, (2R,3S)-1-(6-((2-((3R,4S)-3-fluoro-4-(methoxy-d3)piperidin-1-yl)pyrimidin-4-yl)amino)-4-isopropyl-2,7-naphthyridin-1-yl)-2-methylazetidin-3-ol] | 10 to 20 | < 15
[2H]C([2H])([2H])O[C@@H]1CCN(c2nccc(Nc3cc4c(C(C)C)cnc(N5C[C@H](O)[C@H]5C)c4cn3)n2)C[C@@H]1F [Example 139, (2R,3S)-1-(6-((2-((3S,4R)-3-fluoro-4-(methoxy-d3)piperidin-1-yl)pyrimidin-4-yl)amino)-4-isopropyl-2,7-naphthyridin-1-yl)-2-methylazetidin-3-ol] | < 10 | < 15
[2H]C([2H])([2H])O[C@@H]1CCN(c2nccc(Nc3cc4c(C(C)C)cnc(N5C[C@H](OCCO)[C@H]5C)c4cn3)n2)C[C@@H]1F [Example 140, 2-(((2R,3S)-1-(6-((2-((3S,4R)-3-fluoro-4-(methoxy-d3)piperidin-1-yl)pyrimidin-4-yl)amino)-4-isopropyl-2,7-naphthyridin-1-yl)-2-methylazetidin-3-yl)oxy)ethan-1-ol] | < 10 | < 15
CC(C)c1cnc(N2CC[C@H]2C)c2cnc(Nc3ccnc(N4CC[C@H](OCCO)[C@H](F)C4)n3)cc12 [Example 141, 2-(((3R,4S)-3-fluoro-1-(4-((5-isopropyl-8-((R)-2-methylazetidin-1-yl)-2,7-naphthyridin-3-yl)amino)pyrimidin-2-yl)piperidin-4-yl)oxy)ethan-1-ol] | < 10 | < 15
CC(C)c1cnc(N2CC[C@H]2C)c2cnc(Nc3ccnc(N4CC[C@@H](OCCO)[C@@H](F)C4)n3)cc12 [Example 142, 2-(((3S,4R)-3-fluoro-1-(4-((5-isopropyl-8-((R)-2-methylazetidin-1-yl)-2,7-naphthyridin-3-yl)amino)pyrimidin-2-yl)piperidin-4-yl)oxy)ethan-1-ol] | < 10 | < 15
CC(C)c1cnc(N2C[C@H](O)[C@H]2C)c2cnc(Nc3ccnc(N4CC[C@H](O)[C@H](F)C4)n3)cc12 [Example 143, (3R,4S)-3-fluoro-1-(4-((8-((2R,3S)-3-hydroxy-2-methylazetidin-1-yl)-5-isopropyl-2,7-naphthyridin-3-yl)amino)pyrimidin-2-yl)piperidin-4-ol] | 10 to 20 | < 15

From patent publication US20240382483A1, “HETEROCYCLIC EGFR INHIBITORS FOR USE IN THE TREATMENT OF CANCER” (Blueprint Medicines Corporation, priority 2021, published 2024)
